According to ChEMBL document CHEMBL4673348, “Penipyranicins A-C: Antibacterial Methylpyran Polyketides from a Hydrothermal Spring Sediment Penicillium sp” (2020):
In brackets after ≈: the same amount, converted by molar mass.

What was measured:
Assay type in all cases: functional
Pseudomonas aeruginosa = assay: Antibacterial activity against Pseudomonas aeruginosa NR-117678.1 assessed as reduction in cell viability after 24 hrs by microdilution method
[1] = Antibacterial activity against Escherichia fergusonii CU928158.2 assessed as reduction in cell viability after 24 hrs by microdilution method
Bacillus licheniformis = assay: Antibacterial activity against Bacillus licheniformis KX785171.1 assessed as reduction in cell viability after 24 hrs by microdilution method
Staphylococcus aureus = assay: Antibacterial activity against Staphylococcus aureus CP011526.1 assessed as reduction in cell viability after 24 hrs by microdilution method
Enterobacter hormaechei = assay: Antibacterial activity against Enterobacter xiangfangensis CP017183.1 assessed as reduction in cell viability after 24 hrs by microdilution method; conditions: subsp. xiangfangensis CP017183.1

SMILES | MIC (Pseudomonas aeruginosa) | MIC [1] | MIC (Bacillus licheniformis) | MIC (Staphylococcus aureus) | MIC (Enterobacter hormaechei)
COc1cc(O)c(C(=O)O)c(C2=COC(C(=O)O)=C[C@H]2C)c1 | 5.2 µg/mL (≈ 17 µM) | 7.8 µg/mL (≈ 25.5 µM) | 9.7 µg/mL (≈ 31.7 µM) | 10.3 µg/mL (≈ 33.6 µM) | 3.7 µg/mL (≈ 12.1 µM)
NCC[C@H](O)C(=O)N[C@@H]1C[C@H](N)[C@@H](O[C@H]2O[C@H](CN)[C@@H](O)[C@H](O)[C@H]2O)[C@H](O)[C@H]1O[C@H]1O[C@H](CO)[C@@H](O)[C@H](N)[C@H]1O [AMIKACIN] | 0.8 µg/mL (≈ 1.37 µM) | 0.4 µg/mL (≈ 0.683 µM) | 0.3 µg/mL (≈ 0.512 µM) | 0.5 µg/mL (≈ 0.854 µM) | 0.2 µg/mL (≈ 0.342 µM)
COc1cc(O)cc(C2=COC(C(=O)O)=C[C@H]2C)c1 | 18.4 µg/mL (≈ 70.2 µM) | 13.2 µg/mL (≈ 50.3 µM) | 21.6 µg/mL (≈ 82.4 µM) | > 25 µg/mL | 15.8 µg/mL (≈ 60.2 µM)
O=c1cc(CO)occ1O [KOJIC ACID] | 2.9 µg/mL (≈ 20.4 µM) | 3.5 µg/mL (≈ 24.6 µM) | 14.8 µg/mL (≈ 104 µM) | 9.5 µg/mL (≈ 66.8 µM) | 1.6 µg/mL (≈ 11.3 µM)

Results, then the molecule that gave them:

MIC (Pseudomonas aeruginosa) | MIC [1] | MIC (Bacillus licheniformis) | MIC (Staphylococcus aureus) | MIC (Enterobacter hormaechei) | SMILES
4.7 µg/mL (≈ 14.8 µM) | 11.2 µg/mL (≈ 35.2 µM) | 3.8 µg/mL (≈ 11.9 µM) | 6.3 µg/mL (≈ 19.8 µM) | 7.8 µg/mL (≈ 24.5 µM) | COc1cc(O)c2c3c(c(C)cc(C(=O)O)c13)[C@H](OC)OC2=O
1.4 µg/mL (≈ 4 µM) | 2.7 µg/mL (≈ 7.71 µM) | 8.4 µg/mL (≈ 24 µM) | 6.8 µg/mL (≈ 19.4 µM) | 0.9 µg/mL (≈ 2.57 µM) | COc1cc(O)c(C(=O)O)c(C2=COC(C(=O)O)=C[C@H]2C)c1C(=O)O
